Measured values as given in the supplement of paper PMC10331698.
± gives the standard deviation of the averaged measurements.

Tests used:
Test in all cases: level (log10 ratio to DMSO vehicle control); higher = higher biomarker level / cell amount than vehicle control
Conditions in all cases: in DMSO
[1] = compound: O=S(=O)(O)C(F)(F)C(F)(F)C(F)(F)C(F)(F)C(F)(F)C(F)(F)C(F)(F)C(F)(F)C(F)(F)C(F)(F)F [Sodium perfluorodecanesulfonate]
Experimental: (§1)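 BioMAP Diversity Plus panel of 12 human primary cell co-culture systems (3C, 4H, LPS, SAg, BT, BF4T, BE3C, CASM3C, HDF3CGF, KF3CT, MyoF, Mphg). Compounds were added 1 h before stimulation and left for 24 h (MyoF 48 h; BT 72 h for soluble read-outs or 6 d for IgG). Biomarkers were read by ELISA, cytotoxicity by SRB, PBMC viability and proliferation by Alamar Blue. Each well value was divided by the mean of 8 DMSO control wells on the same plate and log10 transformed; duplicate blinded samples were tested at 4 concentrations.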

[2] = compound: O=S(=O)(O)CCC(F)(F)C(F)(F)C(F)(F)C(F)(F)C(F)(F)C(F)(F)F [6:2 Fluorotelomer sulfonic acid]
Experimental: as §1

[3] = compound: NS(=O)(=O)C(F)(F)C(F)(F)C(F)(F)C(F)(F)C(F)(F)C(F)(F)F [Perfluorohexanesulfonamide]
Experimental: as §1

Nonafluoropentanamide = compound: NC(=O)C(F)(F)C(F)(F)C(F)(F)C(F)(F)F [Nonafluoropentanamide]
Experimental: as §1

Row | Test System | level (log10) ([1]; 1500 nM) | level (log10) ([1]; 4400 nM) | level (log10) ([1]; 13000 nM) | level (log10) ([1]; 40000 nM) | level (log10) ([2]; 6700 nM) | level (log10) ([2]; 20000 nM) | level (log10) ([2]; 60000 nM) | level (log10) ([3]; 6700 nM) | level (log10) ([3]; 20000 nM) | level (log10) ([3]; 60000 nM) | level (log10) (Nonafluoropentanamide; 6700 nM) | level (log10) (Nonafluoropentanamide; 20000 nM) | level (log10) (Nonafluoropentanamide; 60000 nM)
1 | BE3C:IL-1alpha | -0.007 ± 0.0085 | 0.007 ± 0.023 | -0.0495 ± 0.0078 | -0.149 ± 0.0092 | -0.0095 ± 0.021 | -0.005 ± 0.0099 | -0.0005 ± 0.0078 | -0.0195 ± 0.00071 | -0.022 ± 0.013 | -0.0885 ± 0.016 | -0.002 ± 0.0071 | 0.002 ± 0.014 | 0.0105 ± 0.00071
2 | BT:Secreted IgG | -0.026 ± 0.038 | -0.0155 ± 0.022 | -0.0275 ± 0.046 | -0.028 ± 0.028 | 0.0005 ± 0.054 | -0.048 ± 0.031 | -0.081 ± 0.048 | -0.024 ± 0.016 | -0.0005 ± 0.046 | -0.133 ± 0.037 | -0.001 ± 0.0014 | -0.006 ± 0.0099 | -0.005 ± 0.014
3 | BT:B cell Proliferation | 0.0005 ± 0.021 | 0.0065 ± 0.0078 | 0.0015 ± 0.0035 | 0.0125 ± 0.0078 | 0.0405 ± 0.066 | 0.031 ± 0.017 | 0.0625 ± 0.098 | 0.0025 ± 0.063 | 0.034 ± 0.047 | 0.086 ± 0.0042 | 0.032 ± 0.0028 | -0.023 ± 0.0042 | 0.0085 ± 0.0092
4 | BT:sIL-17A | 0.0435 ± 0.16 | 0.057 ± 0.17 | 0.052 ± 0.3 | -0.0495 ± 0.11 | -0.135 ± 0.05 | -0.005 ± 0.081 | -0.126 ± 0.21 | -0.155 ± 0.069 | -0.072 ± 0.069 | -0.026 ± 0.051 | -0.145 ± 0.18 | 0.05 ± 0.064 | -0.213 ± 0.17
5 | BT:sIL-6 | 0 ± 0.031 | -0.0045 ± 0.026 | -0.036 ± 0.1 | -0.0235 ± 0.05 | 0.0255 ± 0.039 | 0.0375 ± 0.016 | 0.003 ± 0.052 | 0.013 ± 0.09 | -0.0025 ± 0.061 | -0.0455 ± 0.037 | -0.0015 ± 0.039 | -0.0035 ± 0.036 | -0.0665 ± 0.03
6 | BF4T:PAI-I | -0.0015 ± 0.0092 | 0.0175 ± 0.005 | 0.0125 ± 0.0035 | 0.021 ± 0.0071 | 0.0075 ± 0.005 | -0.0235 ± 0.012 | -0.0265 ± 0.0078 | 0.002 ± 0.0099 | 0.003 ± 0.0057 | -0.0115 ± 0.005 | -0.0145 ± 0.0064 | -0.0055 ± 0.0035 | 0.0015 ± 0.021
7 | BT:sTNF-alpha | -0.018 ± 0.13 | 0.005 ± 0.067 | -0.0135 ± 0.0064 | 0.0075 ± 0.21 | -0.011 ± 0.031 | 0.0335 ± 0.07 | -0.021 ± 0.04 | -0.013 ± 0.12 | -0.027 ± 0.065 | 0.068 ± 0.09 | 0.089 ± 0.086 | 0.031 ± 0.069 | 0.0565 ± 0.04
8 | BF4T:MMP-3 | -0.0175 ± 0.032 | -0.002 ± 0.0099 | 0.0175 ± 0.0078 | 0.054 ± 0.0042 | -0.0095 ± 0.074 | -0.0015 ± 0.0035 | 0.0515 ± 0.025 | -0.0185 ± 0.00071 | -0.011 ± 0.0042 | 0.0695 ± 0.061 | -0.03 ± 0.0099 | -0.0415 ± 0.012 | -0.0105 ± 0.015
9 | BF4T:uPA | 0.0165 ± 0.0035 | 0.013 ± 0.017 | 0.0415 ± 0.005 | 0.06 ± 0.027 | 0.0085 ± 0.019 | -0.013 ± 0.0028 | -0.001 ± 0.018 | -0.003 ± 0.0042 | 0.0005 ± 0.0035 | -0.01 ± 0.011 | -0.03 ± 0.023 | 0.009 ± 0.013 | 0.025 ± 0.0014
10 | LPS:IL-1alpha | 0.0145 ± 0.026 | -0.0335 ± 0.032 | -0.004 ± 0.041 | -0.178 ± 0.1 | 0.007 ± 0.011 | 0.0225 ± 0.023 | 0.037 ± 0.05 | -0.0075 ± 0.053 | 0.032 ± 0.013 | 0.0185 ± 0.0078 | -0.1 ± 0.011 | -0.102 ± 0.0099 | -0.0555 ± 0.0092
11 | BF4T:tPA | 0.01 ± 0.0071 | 0.0175 ± 0.059 | 0.075 ± 0.018 | 0.068 ± 0.016 | -0.008 ± 0.027 | -0.036 ± 0.028 | -0.0355 ± 0.036 | 0.004 ± 0.0028 | -0.012 ± 0.0085 | -0.075 ± 0.016 | -0.021 ± 0.018 | -0.043 ± 0.023 | -0.0405 ± 0.0078
12 | BE3C:HLA-DR | 0.0005 ± 0.013 | -0.02 ± 0.014 | -0.0755 ± 0.032 | -0.406 ± 0.041 | -0.0135 ± 0.021 | -0.0175 ± 0.012 | -0.024 ± 0.0099 | -0.01 ± 0.0042 | -0.032 ± 0.018 | -0.0685 ± 0.018 | -0.005 ± 0.0042 | -0.016 ± 0.0071 | -0.016 ± 0.0057
13 | SAg:CCL2/MCP-1 | 0.0175 ± 0.022 | -0.014 ± 0.016 | 0.043 ± 0.0085 | 0.0825 ± 0.021 | -0.019 ± 0.0085 | -0.015 ± 0.0042 | 0.0035 ± 0.019 | -0.0065 ± 0.00071 | -0.0185 ± 0.0035 | -0.085 ± 0.027 | -0.0125 ± 0.0035 | -0.0175 ± 0.012 | 0.0195 ± 0.053
14 | BE3C:CXCL11/I-TAC | 0.0095 ± 0.005 | 0.0075 ± 0.0064 | 0.0185 ± 0.005 | -0.0685 ± 0.036 | 0.037 ± 0.028 | 0.0585 ± 0.00071 | 0.067 ± 0.018 | 0.0015 ± 0.052 | -0.023 ± 0.035 | -0.107 ± 0.067 | 0.012 ± 0.0099 | 0.01 ± 0.017 | 0.003 ± 0.027
15 | BE3C:EGFR | 0.0185 ± 0.0035 | 0.0015 ± 0.0064 | -0.022 ± 0.014 | -0.032 ± 0.027 | -0.0075 ± 0.00071 | -0.027 ± 0.0085 | -0.0095 ± 0.0064 | 0.023 ± 0.0057 | 0.0205 ± 0.033 | 0.014 ± 0.017 | 0.0025 ± 0.011 | -0.0425 ± 0.029 | -0.0175 ± 0.011
16 | SAg:PBMC Cytotoxicity | 0.008 ± 0.027 | -0.002 ± 0.0071 | -0.037 ± 0.0028 | 0.017 ± 0.0071 | 0.0105 ± 0.00071 | 0 ± 0.0071 | 0.0305 ± 0.029 | 0 ± 0.05 | 0.0415 ± 0.021 | 0.121 ± 0.023 | 0.009 ± 0.02 | -0.0005 ± 0.013 | 0.0295 ± 0.018
17 | SAg:CD62E/E-Selectin | -0.0105 ± 0.0064 | 0.026 ± 0.0085 | 0.0755 ± 0.04 | 0.138 ± 0.036 | -0.008 ± 0.0057 | -0.007 ± 0.013 | 0.038 ± 0.013 | -0.0155 ± 0.012 | -0.05 ± 0.035 | -0.178 ± 0.034 | -0.006 ± 0.018 | -0.0075 ± 0.00071 | 0.009 ± 0.0042
18 | SAg:CXCL9/MIG | 0.0075 ± 0.013 | -0.0085 ± 0.011 | 0.015 ± 0.013 | -0.0255 ± 0.013 | -0.002 ± 0.018 | -0.0035 ± 0.015 | -0.0045 ± 0.012 | -0.0135 ± 0.018 | -0.004 ± 0.0071 | 0.0105 ± 0.0064 | 0.003 ± 0.014 | -0.0035 ± 0.013 | 0.0185 ± 0.015
19 | SAg:CD38 | -0.018 ± 0.02 | -0.041 ± 0.03 | 0.005 ± 0.035 | -0.071 ± 0.028 | -0.0315 ± 0.012 | -0.022 ± 0.04 | -0.0505 ± 0.032 | 0.0495 ± 0.056 | 0.0225 ± 0.061 | -0.141 ± 0.12 | -0.0345 ± 0.037 | -0.0265 ± 0.04 | -0.032 ± 0.028
20 | BF4T:CCL2/MCP-1 | 0.0015 ± 0.011 | 0.008 ± 0.018 | 0.0125 ± 0.043 | 0.051 ± 0.0042 | 0.0035 ± 0.0064 | -0.024 ± 0.028 | -0.0335 ± 0.069 | -0.0415 ± 0.018 | -0.072 ± 0.0085 | -0.107 ± 0.0042 | 0.001 ± 0.013 | -0.0615 ± 0.023 | -0.105 ± 0.03
